According to article PMC12207250, “Investigations of amination reactions on an antimalarial 1,2,4-triazolo[4,3-a]pyrazine scaffold” (Beilstein Journal of Organic Chemistry, 2025):
Like-named read-outs stand apart in the source and are kept apart here.

Legend:
[1] = tested on: P. falciparum 3D7 (chloroquine-sensitive strain); assay: In vitro antiplasmodial image-based assay; assay type: cell-based, Plasmodium falciparum; conditions: for Selectivity index (fold difference) IC50(HEK293)/IC50(Pf 3D7): HEK293 versus Pf 3D7; for IC50 / inhibition at 80 µM: Plasmodium falciparum; for IC50: read-out: Pf 3D7 IC50 ± SD; for inhibition at 80 µM: 3D7, accurate IC50 not determinable, read-out: growth inhibition against Pf 3D7 at the assay top dose
Description: Plasmodium falciparum 3D7 were cultured in RPMI1640 (Life Technologies, Camarillo, CA, USA) supplemented with 2.5 mg/mL Albumax II, 5% AB human serum, 25 mM HEPES, and 0.37 mM hypoxanthine. Human red blood cells (RBC) (O+) were supplied by Australian Red Cross LifeBlood in accordance with agreement 23-05QLD-23. Use of human RBC for antiplasmodial experimentation was in accordance with Griffith University Human Ethics Exemption Approval #03/08/11019. Ring-stage parasites were treated with compounds following two rounds of sorbitol synchronisation, as previously described. Puromycin, chloroquine, pyrimethamine, and dihydroartemisinin were used as reference compounds. Following incubation of assay plates for 72 h at 37 °C, and 5% CO2 and 5% O2, parasites were stained with 2-(4-amidinophenyl)-1H-indole-6-carboxamidine (DAPI) and imaged using an Opera PhenixPlus™ High Content Screening System (PerkinElmer, Waltham, MA, USA). Images were analysed using the Harmony software (PerkinElmer, Waltham, MA, USA). […]
In vitro antiplasmodial image-based assay
Plasmodium falciparum 3D7 were cultured in RPMI1640 (Life Technologies, Camarillo, CA, USA) supplemented with 2.5 mg/mL Albumax II, 5% AB human serum, 25 mM HEPES, and 0.37mM hypoxanthine. Human red blood cells (RBC) (O+) were supplied by Australian Red Cross LifeBlood in accordance with agreement 23-05QLD-23. Use of human RBC for anti-plasmodial experimentation was in accordance with Griffith University Human Ethics Exemption Approval #03/08/11019. Ring stage parasites were treated with compounds following two rounds of sorbitol synchronisation, as previously described. Puromycin, chloroquine, pyrimethamine, and dihydroartemisinin were used as reference compounds. Following incubation of assay plates for 72 h at 37 °C, and 5% CO2 and 5% O2, parasites were stained with 2-(4-amidinophenyl)-1H-indole-6-carboxamidine (DAPI) and imaged using an Opera PhenixPlusTM High Content Screening System (PerkinElmer, Waltham, MA, USA).
Images were analysed using Harmony software (PerkinElmer, Waltham, MA, USA).

[2] = tested on: HEK293 cells; assay: In vitro cytotoxicity assay (resazurin); assay type: cell-based, human; conditions: for cytotoxicity against HEK293 cells at the top concentration tested (in words): 80 µM
Description: (§1) Human embryonic kidney (HEK293) cells were maintained in DMEM (Life Technologies, Camarillo, CA, USA) containing 10% FBS (Hyclone™ ThermoFisher, Melbourne, Australia). Cytotoxicity testing was undertaken as previously described. In brief, 5 μL of test compound was added to the well of black/clear tissue culture-treated, 384-well plates containing 2000 adherent HEK293 cells/well and incubated 72 h at 37 °C in 5% CO2. […], 5 µL of 600 µM resazurin, diluted in growth media, was added. Plates were further incubated for 6 h and measured for fluorescence at 530 nm excitation and 595 nm emission. The % inhibition was calculated using 0.4% DMSO (no inhibition) and 50 μM puromycin (100% inhibition) data. Puromycin was included as a reference compound to assess assay validity. IC50 values were obtained by plotting % inhibition against log dose using GraphPad Prism v.6 (San Diego, CA, USA) nonlinear regression with a variable slope plot.
In vitro cytotoxicity assay
Human embryonic kidney (HEK293) cells were maintained in DMEM (Life
Technologies, Camarillo, CA, USA) containing 10% FBS (Hyclone™ ThermoFisher, Melbourne, Australia). Cytotoxicity testing was undertaken as previously described.
as §1, with “In brief,” for “Human embryonic kidney (HEK293) cells were maintained in DMEM (Life Technologies, Camarillo, CA, USA) containing 10% FBS (Hyclone™ ThermoFisher, Melbourne, Australia). Cytotoxicity testing was undertaken as previously described. In brief,”, “and incubated for 72 h” for “and incubated 72 h”, “slope plot. […]” for “slope plot.”

[3] = P. falciparum 3D7, ring-stage, 72 h, mean of duplicate, n = 1
[4] = Homo sapiens, HEK293, at top concentration 80 µM, 72 h, mean of duplicate, n = 1, read-out: HEK293 % inhibition ± SD
[5] = reference compounds, P. falciparum 3D7, 72 h

`CN(C)CCCNc1nccn2c(-c3ccc(Cl)cc3)nnc12` [Compound 12] was tested, and the “Selectivity index (fold difference) IC50(HEK293)/IC50(Pf 3D7)” value [1] was >4 and the IC50 [1, 3] was 22 ± 1.56 µM.
`COCCNc1nccn2c(-c3ccc(Cl)cc3)nnc12` [Compound 9] was tested, and the inhibition at 80 µM [1] was < 100%.
`CC(C)(C)OC(=O)NCCCCNc1nccn2c(-c3ccc(Cl)cc3)nnc12` [Compound 15, tert-Butyl(4-((3-(4-chlorophenyl)-[1,2,4]triazolo[4,3-a]pyrazin-8 yl)amino)butyl)carbamate] was tested, and the inhibition at 80 µM [1] was < 100% and the inhibition at 80 µM [2, 4] was 57 ± 4%.
For `CC(C)CCNc1nccn2c(-c3ccc(Cl)cc3)nnc12` [Compound 7, 3-(4-Chlorophenyl)-N-isopentyl-[1,2,4]triazolo[4,3-a]pyrazin-8-amine], the inhibition at 80 µM [1] was < 100%.
In the case of `CN(C)CCNc1nccn2c(-c3ccc(Cl)cc3)nnc12` [Compound 10, N^1-(3-(4-Chlorophenyl)-[1,2,4]triazolo[4,3-a]pyrazin-8-yl)-N^2,N^2-dimethylethane-1,2-diamine], the “Selectivity index (fold difference) IC50(HEK293)/IC50(Pf 3D7)” value [1] is reported as >3 and the IC50 [1, 3] is reported as 23.3 ± 1.7 µM.
`C[C@H]1[C@@H](O)O[C@@H]2O[C@@]3(C)CC[C@H]4[C@H](C)CC[C@@H]1[C@@]24OO3` [DHA, dihydroartemisinin, reference compound] gave an IC50 [1, 5] of 0.000475 ± 9e-05 µM.
Compound `CCc1nc(N)nc(N)c1-c1ccc(Cl)cc1` [PMA, pyrimethamine, reference compound] has an IC50 [1, 5] of 0.0112 ± 0.00212 µM.
For `Clc1ccc(-c2nnc3c(NCc4ccccc4)nccn23)cc1` [Compound 4], the inhibition at 80 µM [1] was < 100%.
For `CCN(CC)CCCNc1nccn2c(-c3ccc(Cl)cc3)nnc12` [Compound 13], the IC50 [1, 3] was 11.3 ± 0.57 µM and the inhibition at up to 80 µM [2, 4] was 48 ± 5%.
For `CCCNc1nccn2c(-c3ccc(Cl)cc3)nnc12` [Compound 6], the inhibition at 80 µM [1] was < 100%.
With `CCN(CC)CCNc1nccn2c(-c3ccc(Cl)cc3)nnc12` [Compound 11] the “Selectivity index (fold difference) IC50(HEK293)/IC50(Pf 3D7)” value [1] was >4 and the IC50 [1, 3] was 22 ± 2.4 µM.
In the case of `Clc1ccc(-c2nnc3c(NCCN4CCNCC4)nccn23)cc1` [Compound 14], the IC50 [1, 3] is reported as 9.9 ± 1.27 µM and the inhibition at 80 µM [2, 4] is reported as 84 ± 4%.
In the case of `Clc1ccc(-c2nnc3c(NCCc4ccccc4)nccn23)cc1` [Compound 2, 3-(4-Chlorophenyl)-N-phenethyl-[1,2,4]triazolo[4,3-a]pyrazin-8-amine], the inhibition at 80 µM [1] is reported as < 100% and the “cytotoxicity against HEK293 cells at the top concentration tested (in words)” value (from here on “cytotoxicity against HEK293 cells”) [2] is reported as “no cytotoxicity”.
For `CCN(CC)CCCC(C)Nc1ccnc2cc(Cl)ccc12` (centres unmarked) [CQ, chloroquine, reference compound], the IC50 ([1]; 3D7, 72 h) was 0.0212 ± 0.00566 µM.
With `Clc1ccc(-c2nnc3cncc(Cl)n23)cc1` [Compound 1, 5-chloro-3-(4-chlorophenyl)-[1,2,4]triazolo[4,3-a]pyrazine] the “Selectivity index (fold difference) IC50(HEK293)/IC50(Pf 3D7)” value [1] was >6, the IC50 [1, 3] was 12.6 ± 1.9 µM and the “cytotoxicity against HEK293 cells” value [2] was “no cytotoxicity”.
With `Clc1ccc(-c2nnc3c(NC4CCCCC4)nccn23)cc1` [Compound 8] the inhibition at 80 µM [1] was < 100%.
For `COc1ccc(C[C@H](N)C(=O)N[C@H]2[C@@H](O)[C@H](n3cnc4c(N(C)C)ncnc43)O[C@@H]2CO)cc1` [PMY, puromycin, reference compound], the “Selectivity index (fold difference) IC50(HEK293)/IC50(Pf 3D7)” value [1] was 13, the IC50 [1, 5] was 0.0338 ± 0.00566 µM and the IC50 ([2]; Homo sapiens, HEK293, reference compounds, 72 h, read-out: HEK293 IC50 ± SD) was 430 ± 28.3 nM.
`Fc1ccc(CNc2nccn3c(-c4ccc(Cl)cc4)nnc23)cc1` [Compound 5] was tested, and the inhibition at 80 µM [1] was < 100%.
For `Fc1ccc(CCNc2nccn3c(-c4ccc(Cl)cc4)nnc23)cc1` [Compound 3], the inhibition at 80 µM [1] was < 100%, the “cytotoxicity against HEK293 cells” value [2] was “some inhibition” and the inhibition at 80 µM [2, 4] was 74 ± 7%.
